#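 Compound exposure: 48 hours, 5 concentrations, 96-well plates. GI50 = concentration required for 50% inhibition of growth. TGI marks complete inhibition of growth.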
# How the values were obtained:
# Experiment in all cases: inhibition of tumour cell growth, NCI panel, 48 h
# SW-620 colon = test system: SW-620 colon
# SF-539 CNS = test system: SF-539 CNS
# NCI-H522 lung = test system: NCI-H522 lung
# MDA-MB-435 = test system: MDA-MB-435
# U251 CNS = test system: U251 CNS
# OVCAR-4 ovarian = test system: OVCAR-4 ovarian
# NCI/ADR-RES ovarian = test system: NCI/ADR-RES ovarian
# KM12 colon = test system: KM12 colon
# MALME-3M melanoma = test system: MALME-3M melanoma
# HL-60(TB) leukemia = test system: HL-60(TB) leukemia
# NCI-H226 lung = test system: NCI-H226 lung
# MCF7 breast = test system: MCF7 breast
# A549 NSCLC = test system: A549 NSCLC
# SNB-19 CNS = test system: SNB-19 CNS
# HOP-92 NSCLC = test system: HOP-92 NSCLC
# NCI-H460 lung = test system: NCI-H460 lung
# RPMI-8226 leukemia = test system: RPMI-8226 leukemia
# IGROV1 ovarian = test system: IGROV1 ovarian
# CAKI-1 renal = test system: CAKI-1 renal
# DU-145 prostate = test system: DU-145 prostate
# A498 renal = test system: A498 renal
# SK-MEL-5 melanoma = test system: SK-MEL-5 melanoma
# HCT-116 colon = test system: HCT-116 colon
# ACHN renal = test system: ACHN renal
# CCRF-CEM leukemia = test system: CCRF-CEM leukemia
# SK-MEL-2 melanoma = test system: SK-MEL-2 melanoma
# OVCAR-8 ovarian = test system: OVCAR-8 ovarian
# TK-10 renal = test system: TK-10 renal
# HCT-15 colon = test system: HCT-15 colon
structure (smiles),measurement,setting,value
COc1ccc(Cn2c(Br)c3c(c2-c2cc(OC)c(OC)c(OC)c2)CCc2sc(N)nc2-3)cc1,GI50,SW-620 colon,515 nM
same,TGI,SW-620 colon,7650 nM
same,GI50,SF-539 CNS,1160 nM
same,TGI,SF-539 CNS,10500 nM
same,GI50,NCI-H522 lung,263 nM
same,TGI,NCI-H522 lung,1090 nM
same,GI50,MDA-MB-435,224 nM
same,TGI,MDA-MB-435,537 nM
same,GI50,U251 CNS,1300 nM
same,TGI,U251 CNS,12700 nM
same,GI50,OVCAR-4 ovarian,2500 nM
same,TGI,OVCAR-4 ovarian,> 57300 nM
same,GI50,NCI/ADR-RES ovarian,866 nM
same,TGI,NCI/ADR-RES ovarian,36300 nM
same,GI50,KM12 colon,1180 nM
same,TGI,KM12 colon,> 30000 nM
same,GI50,MALME-3M melanoma,438 nM
same,TGI,MALME-3M melanoma,28500 nM
same,GI50,HL-60(TB) leukemia,465 nM
same,TGI,HL-60(TB) leukemia,3670 nM
same,GI50,NCI-H226 lung,6930 nM
same,TGI,NCI-H226 lung,> 50600 nM
same,GI50,MCF7 breast,371 nM
same,TGI,MCF7 breast,18900 nM
same,GI50,A549 NSCLC,2230 nM
same,TGI,A549 NSCLC,> 100000 nM
same,GI50,SNB-19 CNS,3970 nM
same,TGI,SNB-19 CNS,> 100000 nM
same,GI50,HOP-92 NSCLC,477 nM
same,TGI,HOP-92 NSCLC,2880 nM
same,GI50,NCI-H460 lung,1890 nM
same,TGI,NCI-H460 lung,10200 nM
same,GI50,RPMI-8226 leukemia,3160 nM
same,TGI,RPMI-8226 leukemia,32400 nM
same,GI50,IGROV1 ovarian,1280 nM
same,TGI,IGROV1 ovarian,9190 nM
same,GI50,CAKI-1 renal,765 nM
same,TGI,CAKI-1 renal,> 28200 nM
same,GI50,DU-145 prostate,2040 nM
same,TGI,DU-145 prostate,7430 nM
same,GI50,A498 renal,267 nM
same,TGI,A498 renal,2360 nM
same,GI50,SK-MEL-5 melanoma,1600 nM
same,TGI,SK-MEL-5 melanoma,13500 nM
same,GI50,HCT-116 colon,1400 nM
same,TGI,HCT-116 colon,> 100000 nM
same,GI50,ACHN renal,1070 nM
same,TGI,ACHN renal,25700 nM
same,GI50,CCRF-CEM leukemia,890 nM
same,TGI,CCRF-CEM leukemia,4400 nM
same,GI50,SK-MEL-2 melanoma,720 nM
same,TGI,SK-MEL-2 melanoma,5410 nM
same,GI50,OVCAR-8 ovarian,1320 nM
same,TGI,OVCAR-8 ovarian,16900 nM
same,GI50,TK-10 renal,1100 nM
same,TGI,TK-10 renal,6960 nM
same,GI50,HCT-15 colon,1050 nM
